Like-named read-outs stand apart in the source and are kept apart here.
Tests used:
[1] = test system: Human RSV-A (“Long” strain); assay: RSV-A assay: inhibition of cytopathic effect in Hep-2 cells, ATPlite readout; format: cell-based, Human respiratory syncytial virus (HRSV); conditions: human respiratory syncytial virus, read-out: Human RSV-A (“Long” strain) EC50
In short: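 Hep-2 cells (8,000/well) were infected with RSV-A Long at MOI 0.1 alongside duplicate 2-fold compound dilutions. After 5 days, cell viability was read by ATPlite luminescence to give EC50. CC50 came from a parallel plate without virus.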

[2] = test system: RSV-B, genotype B, strain 9320; assay: RSV-B assay: A549 cells infected with RSV-B, qPCR or ATPlite readout; format: cell-based, Human respiratory syncytial virus (HRSV); conditions: human respiratory syncytial virus
Text: Hep-2 cells, (originally derived from tumors grown in irradiated-cortisonised weanling rats that had been injected with epidermoid carcinoma tissue from a person's larynx, but later found to be indistinguishable from HeLa cells by PCR DNA analysis), were used for the culturing of genotype B, strain 9320. Flasks were inoculated with RSV-B and viral stocks were collected once cytopathic effect (CPE) was greater than […]. Viral stocks in 25% o sucrose media were snap frozen using liquid nitrogen to increase viral stability. Viral stock titers were quantified by tissue culture infectious dose 50% o (TCID50) using 8,000 cells per well and 5-fold viral dilutions across a 96-well plate, cultured for 4 days. Viral stock titers were also quantified by a plaque forming unit assay, as described elsewhere.
The assay is run as follows: A549 cells (originally derived through explant culture from a person's carcinomatous lung tissue) are seeded into the inner 60 wells of a 96-well plate at 3,000 cells per well in a volume of 50 μL using A549 growth media (F-12K Media, 1% Penn/Strep, 1% nonessential amino acids, 10% heat-inactivated FBS). 2-fold serial dilutions of control and test compounds are added to the wells in duplicate in a total volume of 25 μL. Viral stock is then added to the wells at a multiplicity of infection (MOI) of 0.5 in a volume of 25 μL, bringing the total volume of each well to 100 μL. The MOI is calculated using the PFU/mL, or TCID50 if unavailable. Each 96-well plate has a control column of 6 wells with cells and virus but no compound (negative control, max CPE), a column with cells but no compound or virus (positive control, minimum CPE), and a column with no cells or virus or compound (background plate/reagent control). The control wells with cells but no virus are given an additional 25 uL of growth media containing an equal quantity of sucrose as those wells receiving the viral stock in order to keep consistent in media and volume conditions. The outer wells of the plate are filled with 125 μL of moat media (DMEM, 1% Penn/Strep) to act as a thermal and evaporative moat around the test wells. 6 days post infection, the plates are read using qPCR or ATP lite (50 uL added per well), which quantifies the amount of ATP (a measure of cell health) present in each well. Assay plates treated with APTlite are read using the Envision luminometer. […] EC50 ranges are as follows: A<0.4 μM; B 0.4-0.8 μM; C>0.8 μM.

[3] = Cytotoxicity on parallel plate without virus, ATPlite readout; format: cell-based; conditions: human, Hep-2 cells (no virus), Hep-2 cells without virus, 5-day incubation
In short: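 Hep-2 cells, 8,000/well, received duplicate 2-fold compound dilutions with growth medium in place of virus. After 5 days, viability measured as ATP by ATPlite luminescence. CC50 reported in ranges: A>50 μM; B 10-50 μM; C<10 μM.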

[4] = A549, read-out: Human RSV-B EC50
[5] = 120 h, Hep-2 cells, MOI 0.1, 5-day incubation, ATPlite
[6] = A549 cells infected with RSV-B strain 9320, MOI 0.5, read-out: Human RSV-B EC50

Row | Compound | EC50 ([1]; HEp-2, 120 h) | EC50 [2, 4] | EC50 [1, 5] | EC50 [2, 6] | CC50 at 5 days [3]
1 | C[C@H]1CN(c2cc(C(F)(F)F)cnc2-c2nnc(N[C@H]3N=C(c4ccccc4)c4ccccc4NC3=O)o2)CCO1 [Example 278] | < 400 nM | < 400 nM | – | – | –
2 | O=C1Nc2ccccc2C(c2ccccc2)=N[C@@H]1Nc1nnc(-c2ncc(C(F)(F)F)cc2N2CCOCC2)o1 [Example 253] | – | – | < 400 nM | < 400 nM | –
3 | O=C1Nc2ccccc2C(c2ccccc2)=N[C@@H]1Nc1nnc(-c2oc3ccccc3c2N2CCOCC2)o1 [Example 179] | < 400 nM | < 400 nM | – | – | –
4 | O=C1Nc2ccccc2C(c2ccccc2)=N[C@@H]1Nc1nnc(-c2nc(-c3cccnc3)sc2N2CCOCC2)o1 [Example 388] | < 400 nM | < 400 nM | – | – | –
5 | O=C1Nc2ccccc2C(c2ccccc2)=N[C@@H]1Nc1nnc(-c2ncc(C3CC3)cc2N2CCOCC2)o1 [Example 169] | < 400 nM | < 400 nM | – | – | –
6 | COC1CCN(c2cc(C(F)(F)F)cnc2-c2nnc(N[C@H]3N=C(c4ccccc4)c4ccccc4NC3=O)o2)CC1 [Example 268] | > 800 nM | 400 to 800 nM | – | – | –
7 | C[C@@H]1COCCN1c1ncccc1-c1nnc(NC2N=C(c3ccccc3)c3ccccc3NC2=O)o1 (stereo partly drawn) [Example 245] | < 400 nM | 400 to 800 nM | – | – | –
8 | O=C1Nc2ccccc2C(c2ccccc2)=NC1Nc1ccc(-c2ccccc2)nn1 (stereo not drawn) [Example 95] | 400 to 800 nM | > 800 nM | – | – | –
9 | N#CCCNc1cc(C(F)(F)F)cnc1-c1nnc(N[C@H]2N=C(c3ccccc3)c3ccccc3NC2=O)o1 [Example 303] | < 400 nM | < 400 nM | – | – | –
10 | O=C1Nc2ccccc2C(c2ccccc2)=N[C@@H]1Nc1nnc(-c2ccc(F)cc2)o1 [Example 7a] | 400 to 800 nM | > 800 nM | – | – | > 50000 nM
11 | O=C1Nc2ccccc2C(c2ccccc2)=N[C@@H]1Nc1nnc(-c2csc(N3CCOCC3)n2)o1 [Example 351] | 400 to 800 nM | 400 to 800 nM | – | – | –
12 | O=C1Nc2ccccc2C(c2ccccc2)=NC1Nc1nnc(-c2ncc(C(F)(F)F)cc2N2CCOCC2)o1 (stereo not drawn) [Example 139] | – | – | < 400 nM | < 400 nM | –
13 | O=C1Nc2ccccc2C(c2ccccc2)=N[C@@H]1Nc1nnc(-c2ccc(C(F)(F)F)nc2N2CC3CCC(C2)O3)o1 [Example 276] | 400 to 800 nM | > 800 nM | – | – | –
